# According to ChEMBL document CHEMBL5550211 (J Med Chem, 2024):
# The source made the active and inactive calls. The calls are words filed in the database; no cut-off is given here.
# What was measured:
# [1] = Tmax in mouse at 30 mg/kg, po; type: ADME, organism-based; conditions: in vivo
# [2] = Tmax in mouse at 10 mg/kg, po; type: ADME, organism-based; conditions: in vivo
# [3] = Tmax in mouse at 5 mg/kg, po; type: ADME, organism-based; conditions: in vivo
# [4] = Cmax in mouse at 30 mg/kg, po; type: ADME, organism-based; conditions: in vivo
# [5] = Cmax in mouse at 10 mg/kg, po; type: ADME, organism-based; conditions: in vivo
# [6] = Volume of distribution at steady state in mouse at 3 mg/kg, iv; type: ADME, organism-based; conditions: in vivo, read-out: Vdss
# [7] = Cmax in mouse at 5 mg/kg, po; type: ADME, organism-based; conditions: in vivo
# [8] = Half-life in mouse at 3 mg/kg, iv; type: ADME, organism-based; conditions: in vivo
# [9] = target: Voltage-gated inwardly rectifying potassium channel KCNH2 (Homo sapiens, UniProt Q12809); test: Inhibition of hERG; type: toxicity
# Sequence of Voltage-gated inwardly rectifying potassium channel KCNH2 (Q12809 whole entry): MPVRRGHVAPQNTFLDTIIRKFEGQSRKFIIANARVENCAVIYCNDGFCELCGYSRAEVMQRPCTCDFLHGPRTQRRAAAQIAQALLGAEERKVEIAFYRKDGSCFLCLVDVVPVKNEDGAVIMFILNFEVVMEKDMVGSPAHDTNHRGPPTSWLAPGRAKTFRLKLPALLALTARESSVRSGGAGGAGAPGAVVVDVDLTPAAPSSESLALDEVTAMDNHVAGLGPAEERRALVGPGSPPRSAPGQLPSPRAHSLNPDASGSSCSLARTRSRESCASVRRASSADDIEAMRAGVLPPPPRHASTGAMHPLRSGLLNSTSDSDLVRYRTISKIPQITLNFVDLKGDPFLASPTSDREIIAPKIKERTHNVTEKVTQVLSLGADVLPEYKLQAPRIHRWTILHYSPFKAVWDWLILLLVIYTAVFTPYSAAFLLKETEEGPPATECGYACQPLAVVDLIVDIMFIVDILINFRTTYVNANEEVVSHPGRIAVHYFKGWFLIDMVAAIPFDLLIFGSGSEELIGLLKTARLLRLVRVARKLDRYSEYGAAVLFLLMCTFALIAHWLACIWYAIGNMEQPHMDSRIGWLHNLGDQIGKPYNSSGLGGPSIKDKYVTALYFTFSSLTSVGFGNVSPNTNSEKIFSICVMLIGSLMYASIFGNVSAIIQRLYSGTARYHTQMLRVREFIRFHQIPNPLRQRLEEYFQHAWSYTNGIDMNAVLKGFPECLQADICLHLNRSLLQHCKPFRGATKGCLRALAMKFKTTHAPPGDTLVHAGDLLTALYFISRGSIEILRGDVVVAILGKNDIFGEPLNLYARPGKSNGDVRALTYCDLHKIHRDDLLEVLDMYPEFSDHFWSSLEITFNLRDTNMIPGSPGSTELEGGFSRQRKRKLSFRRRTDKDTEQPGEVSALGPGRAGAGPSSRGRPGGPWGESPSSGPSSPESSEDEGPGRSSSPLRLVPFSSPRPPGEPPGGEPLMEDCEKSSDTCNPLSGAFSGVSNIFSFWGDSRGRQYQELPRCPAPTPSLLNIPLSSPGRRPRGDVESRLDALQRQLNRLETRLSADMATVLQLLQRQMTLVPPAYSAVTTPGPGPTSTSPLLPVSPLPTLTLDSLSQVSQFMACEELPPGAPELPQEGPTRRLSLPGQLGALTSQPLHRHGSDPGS
# [10] = Clearance in mouse at 3 mg/kg, iv; type: ADME, organism-based; conditions: in vivo
# [11] = Apparent permeability across apical to basolateral side in LLC-PK1 cells; type: ADME, cell-based, Sus scrofa; conditions: pig
# [12] = Dissociation constant, pKa of the compound; type: physicochemical
# [13] = Chemical stability in MeOH/NaHCO3/glutathione assessed as drug metabolism assessed as SN2 substitution after 50 degreeC overnight incubation; type: physicochemical; conditions: read-out: Drug metabolism
# [14] = Chemical stability in MeOH/NaHCO3/cysteine assessed as drug metabolism assessed as SN2 substitution after 50 degreeC overnight incubation; type: physicochemical; conditions: read-out: Drug metabolism
# [15] = Plasma protein binding in mouse assessed as unbound fraction; type: ADME, cell-free
# [16] = Plasma protein binding in rat assessed as unbound fraction; type: ADME, cell-free
# [17] = Plasma protein binding in dog assessed as unbound fraction; type: ADME, cell-free, Canis lupus familiaris
# [18] = Plasma protein binding in cynomolgus monkey assessed as unbound fraction; type: ADME, cell-free, Macaca fascicularis
# [19] = Plasma protein binding in human assessed as unbound fraction; type: ADME, cell-free
# [20] = Protein binding in mouse brain assessed as unbound fraction; type: ADME, tissue-based
# [21] = Protein binding in rat brain assessed as unbound fraction; type: ADME, tissue-based
# [22] = Protein binding in dog brain assessed as unbound fraction; type: ADME, tissue-based, Canis lupus familiaris
# [23] = Protein binding in cynomolgus monkey brain assessed as unbound fraction; type: ADME, tissue-based, Macaca fascicularis
# [24] = Solubility in stimulated gastric fluid at pH 1.2; type: ADME; conditions: simulated gastric fluid
# [25] = Solubility in stimulated intestinal fluid at pH 6.5; type: ADME; conditions: simulated intestinal fluid
# [26] = Solubility in buffer at pH 7.4; type: physicochemical
# [27] = AUCinfinity in mouse at 5 mg/kg, po; type: ADME, organism-based; conditions: in vivo
# [28] = AUCinfinity in mouse at 10 mg/kg, po; type: ADME, organism-based; conditions: in vivo
# [29] = AUCinfinity in mouse at 30 mg/kg, po; type: ADME, organism-based; conditions: in vivo
# [30] = Oral bioavailability in mouse at 5 mg/kg; type: ADME, organism-based; conditions: in vivo
# [31] = Oral bioavailability in mouse at 10 mg/kg; type: ADME, organism-based; conditions: in vivo
# [32] = Oral bioavailability in mouse at 30 mg/kg; type: ADME, organism-based; conditions: in vivo
# [33] = Drug concentration in mouse plasma at 5 mg/kg, po after 2 hrs; type: ADME, organism-based
# [34] = Drug concentration in mouse plasma at 5 mg/kg, po after 4 hrs; type: ADME, organism-based
# [35] = Drug concentration in mouse plasma at 10 mg/kg, po after 2 hrs; type: ADME, organism-based
# [36] = Drug concentration in mouse plasma at 10 mg/kg, po after 4 hrs; type: ADME, organism-based
# [37] = Drug concentration in mouse plasma at 30 mg/kg, po after 2 hrs; type: ADME, organism-based
# [38] = Drug concentration in mouse plasma at 30 mg/kg, po after 4 hrs; type: ADME, organism-based
# [39] = Unbound drug concentration in mouse plasma at 5 mg/kg, po after 2 hrs; type: ADME, organism-based; conditions: in vivo
# [40] = Unbound drug concentration in mouse plasma at 5 mg/kg, po after 4 hrs; type: ADME, organism-based; conditions: in vivo
# [41] = Unbound drug concentration in mouse plasma at 10 mg/kg, po after 2 hrs; type: ADME, organism-based; conditions: in vivo
# [42] = Unbound drug concentration in mouse plasma at 10 mg/kg, po after 4 hrs; type: ADME, organism-based; conditions: in vivo
# [43] = Unbound drug concentration in mouse plasma at 30 mg/kg, po after 2 hrs; type: ADME, organism-based; conditions: in vivo
# [44] = Unbound drug concentration in mouse plasma at 30 mg/kg, po after 4 hrs; type: ADME, organism-based; conditions: in vivo
# [45] = Drug concentration in mouse brain at 5 mg/kg, po after 2 hrs; type: ADME, organism-based; conditions: read-out: Ct
# [46] = Drug concentration in mouse brain at 5 mg/kg, po after 4 hrs; type: ADME, organism-based; conditions: read-out: Ct
# [47] = Drug concentration in mouse brain at 10 mg/kg, po after 2 hrs; type: ADME, organism-based; conditions: read-out: Ct
# [48] = Drug concentration in mouse brain at 10 mg/kg, po after 4 hrs; type: ADME, organism-based; conditions: read-out: Ct
# [49] = Drug concentration in mouse brain at 30 mg/kg, po after 2 hrs; type: ADME, organism-based; conditions: read-out: Ct
# [50] = Drug concentration in mouse brain at 30 mg/kg, po after 4 hrs; type: ADME, organism-based; conditions: read-out: Ct
# [51] = Unbound drug concentration in mouse brain at 5 mg/kg, po after 2 hrs; type: ADME, organism-based; conditions: in vivo
# [52] = Unbound drug concentration in mouse brain at 5 mg/kg, po after 4 hrs; type: ADME, organism-based; conditions: in vivo
# [53] = Unbound drug concentration in mouse brain at 10 mg/kg, po after 2 hrs; type: ADME, organism-based; conditions: in vivo
# [54] = Unbound drug concentration in mouse brain at 10 mg/kg, po after 4 hrs; type: ADME, organism-based; conditions: in vivo
# [55] = Unbound drug concentration in mouse brain at 30 mg/kg, po after 2 hrs; type: ADME, organism-based; conditions: in vivo
# [56] = Unbound drug concentration in mouse brain at 30 mg/kg, po after 4 hrs; type: ADME, organism-based; conditions: in vivo
# [57] = tested on: A-375; test: Antitumor activity against human A-375 cells harboring BRAF V600E mutant xenografted in Nu/nu NCR mouse assessed as IC90 coverage time at 5 mg/kg, po BID for 21 days; type: functional; conditions: time 21 day
# [58] = tested on: A-375; test: Antitumor activity against human A-375 cells harboring BRAF V600E mutant xenografted in Nu/nu NCR mouse assessed as IC90 coverage time at 10 mg/kg, po BID for 21 days; type: functional; conditions: time 21 day
# [59] = tested on: A-375; test: Antitumor activity against human A-375 cells harboring BRAF V600E mutant xenografted in Nu/nu NCR mouse assessed as tumor regression at 5 mg/kg, po BID for 21 days; type: functional, organism-based; conditions: time 21.0 day
# [60] = tested on: A-375; test: Antitumor activity against human A-375 cells harboring BRAF V600E mutant xenografted in Nu/nu NCR mouse assessed as tumor regression at 10 mg/kg, po BID measured after 2 weeks; type: functional, organism-based
# [61] = Toxicity in Nu/nu NCR mouse subcutaneously xenografted with human A-375 cells harboring BRAF V600E mutant assessed as body weight loss at 5 to 10 mg/kg, po measured after 21 days; type: organism-based; conditions: in vivo, 504 h, dose 5-10 mg/kg, time 21 day
# [62] = tested on: A-375; test: Antitumor activity against human A-375 cells harboring BRAF V600E mutant xenografted in Nu/nu NCR mouse assessed as IC90 coverage at 5 mg/kg, po BID for 60 days; type: functional, organism-based; conditions: time 60.0 day
# [63] = tested on: A-375; test: Antitumor activity against human A-375 cells harboring BRAF V600E mutant xenografted in Nu/nu NCR mouse assessed as IC90 coverage time at 10 mg/kg, po BID for 60 days; type: functional; conditions: time 60 day
# [64] = tested on: A-375; test: Antitumor activity against human A-375 cells harboring BRAF V600E mutant xenografted in Nu/nu NCR mouse assessed as IC90 coverage time at 30 mg/kg, po BID for 60 days; type: functional; conditions: time 60 day
# [65] = tested on: A-375; test: Antitumor activity against human A-375 cells harboring BRAF V600E mutant xenografted in Nu/nu NCR mouse assessed as tumor flux inhibition at 10 to 30 mg/kg, po BID for 60 days; type: functional; set-up: scale not given: the % may be the effect or the level left; conditions: dose 10-30 mg/kg, time 60 day
# [66] = tested on: A-375; test: Antitumor activity against human A-375 cells harboring BRAF V600E mutant xenografted in Nu/nu NCR mouse assessed as tumor regression at 10 to 30 mg/kg, po BID for 60 days; type: functional; conditions: dose 10-30 mg/kg, time 60 day
# [67] = Toxicity in Nu/nu NCR mouse intracerebrally xenografted with human A-375 cells harboring BRAF V600E mutant assessed as body weight loss at 5 to 10 mg/kg, po measured after 60 days; type: organism-based; conditions: in vivo, 1440 h, dose 5-10 mg/kg, time 60 day
# [68] = Toxicity in Nu/nu NCR mouse intracerebrally xenografted with human A-375 cells harboring BRAF V600E mutant assessed as animal death at 5 to 10 mg/kg, po measured after 60 days; type: organism-based; conditions: in vivo, 1440 h, dose 5-10 mg/kg, time 60 day
smiles,measurement,setting,value
Cc1c(Nc2c(F)ccc(NS(=O)(=O)CCCF)c2Cl)ccc2ncn(C)c(=O)c12 [TINLORAFENIB],Tmax,[1],1 h
same,Tmax,[2],1 h
same,Tmax,[3],1 h
same,Cmax,[4],18000 ng/mL
same,Cmax,[5],14000 ng/mL
same,Vd,[6],0.59 L/kg
same,Cmax,[7],4700 ng/mL
same,half-life,[8],1.9 h
same,IC50,[9],49.7 µM
same,clearance,[10],3.7 mL/min/kg
same,Papp A→B,[11],36 ×10⁻⁶ cm/s
same,pKa,[12],7.41
same,degraded,[13],< 1%
same,degraded,[14],< 1%
same,fraction unbound,[15],0.019
same,fraction unbound,[16],0.003
same,fraction unbound,[17],0.017
same,fraction unbound,[18],0.011
same,fraction unbound,[19],0.009
same,fraction unbound,[20],0.087
same,fraction unbound,[21],0.068
same,fraction unbound,[22],0.073
same,fraction unbound,[23],0.068
same,solubility,[24],132 µg/mL
same,solubility,[25],7.6 µg/mL
same,solubility,[26],9.1 µg/mL
same,AUC(0-inf),[27],28000 ng·h/mL
same,AUC(0-inf),[28],86000 ng·h/mL
same,AUC(0-inf),[29],176000 ng·h/mL
same,bioavailability,[30],126%
same,F,[31],192%
same,bioavailability,[32],130%
same,concentration at 2 h,[33],4200 ng/mL
same,concentration at 4 h,[34],3100 ng/mL
same,concentration at 2 h,[35],11000 ng/mL
same,concentration at 4 h,[36],9900 ng/mL
same,concentration at 2 h,[37],16000 ng/mL
same,concentration at 4 h,[38],12000 ng/mL
same,Cp(f),[39],79 ng/mL
same,Cp(f),[40],59 ng/mL
same,Cp(f),[41],220 ng/mL
same,Cp(f),[42],190 ng/mL
same,Cp(f),[43],300 ng/mL
same,Cp(f),[44],230 ng/mL
same,concentration at 2 h,[45],590 ng/g
same,concentration at 4 h,[46],530 ng/g
same,concentration at 2 h,[47],1600 ng/g
same,concentration at 4 h,[48],1600 ng/g
same,concentration at 2 h,[49],2400 ng/g
same,concentration at 4 h,[50],2100 ng/g
same,Drug uptake(free),[51],0.051 µg/g
same,Drug uptake(free),[52],0.046 µg/g
same,Drug uptake(free),[53],0.14 µg/g
same,Drug uptake(free),[54],0.14 µg/g
same,Drug uptake(free),[55],0.21 µg/g
same,Drug uptake(free),[56],0.18 µg/g
same,Time,[57],~8 h
same,Time,[58],>16 h
same,Activity,[59],Active
same,Activity,[60],Active
same,Activity,[61],< 5%
same,Activity,[62],inactive
same,Time,[63],~16 h
same,Time,[64],>24 h
same,Activity,[65],>99%
same,Activity,[66],>90%
same,Activity,[67],< 5%
same,Activity,[68],Non-Toxic
